One test concerns HCT-116 cells. The test is described as follows: HCT assay: real-time proliferation assay using xCELLigence system. Format: cell-based. As to conditions: xCELLigence impedance. On the procedure: The compounds were evaluated in a proliferation assay using HCT-116 cells using an xCELLigence system. Briefly, the xCELLigence system monitors cellular events in real time by measuring electrical impedance across interdigitated micro-electrodes integrated on the bottom of tissue culture E-Plates. The impedance measurement provides quantitative information about the biological status of the cells, including cell number, viability, and morphology. Real-time proliferation assays were then to determine the IC50 values. All proliferation assays start 24 hours after the transfection.

Test [1] relates to GalN/LPS fulminant liver injury. Put plainly: GalN/LPS fulminant liver injury model, Study b (serum ALT). Format: in vivo, C57BL/6 mice. As to conditions: for Hepatoprotection at lower doses: 10 mg/kg (4.3 and 8.6 μmole/kg) for C2, 5 and 10 mg/kg (3.3 and 6.6 μmole/kg) for C4, 5 mg/kg (6.3 mole/kg [sic]) for C5; for Hepatoprotection in the model (low ALT activity levels following GalN/LPS): FIG. 3; for ALT: GalN-LPS 700 mg/kg - 10 μg/kg, 6 hours post injury, WFI control 5989. The procedure:
(§1) Mice were maintained under 12 h light/dark cycles with unlimited access to food and water. Study was performed in 6- to 14-week old male mice. C57BL/6 mice were used. Mice are first injected with pentamidine or Example 2 compound (IP injection). […]
(§2) All doses were administered IP to six mice (n=6), 30 minutes prior to the injection of the GalN and LPS, when applicable to the group. Blood samples were collected exactly 6 hours post GalN/LPS injections, or 6.5 hours after vehicle injections.
(§3) The tested compounds were dosed IP 30 minutes prior to the co-treatment with galactosamine (GalN) and endotoxin (Lipopolysaccharide) LPS. Mice were sacrificed at 6 hours after GalN/LPS for ALT analysis. The analysis of alanine transaminase (ALT) serum levels allows the evaluation of the hepatoprotective, anti-TNF-α, anti-inflammatory and/or anti-fibrotic activity.

Test [2] relates to DSS-induced acute colitis. Put plainly: DSS-induced acute colitis in mice (Disease Activity Index). It counts as in vivo, C57BL/6 ELITE mice. As to conditions: 2.5% DSS; 2.5 and 5 mg/kg IP q.d. D1-D6, termination D7; FIG. 5. The procedure: Dextran Sulfate Sodium 2.5% stocks were prepared by adding tap water in the pre-weighed powder. DSS solutions will be changed every 3 days for all groups, i.e. on Day 1 (D1) and Day 4 (D4).
Formulations for Intraperitoneal Administration: • Vehicle: sterile double distilled water (DDW) • For Pentamidine (Penta) and Compounds 2 and 4, the compounds were dissolved in DDW and dosed at 2 mL/kg to yield the indicated doses. In-Vivo Study
Male C57BL/6 ELITE mice of ˜7-8 weeks old were used. After 5-day acclimatization period in animal facility, all mice were weighed and given tap water containing 2.5% DSS on Day 1, treatment also starts on Day 1.
Animals were dosed from D1 to D6, once daily by IP injection (2 mL/kg). Animals were terminated on D7. The Disease Activity Index (DAI) scale is based on the evaluation of different parameters characterizing experimental colitis induction and progression. Body weight, presence of gross blood in the feces and stool consistency will be recorded daily.
• Weight loss: 0=none; 1=1 to 5%; 2=5 to 10%; 3=_10 to 20%; 4=>20% • Stool consistency: 0=normal; 2=loose; 4=diarrhea • Rectal bleeding: 0=normal; 2=occult bleeding; 4=gross bleeding
On Day 7, mice will be weighed and disease scores evaluated, and then euthanized by CO2 inhalation.

In test [3] the test system is GalN/LPS fulminant liver injury. Put plainly: GalN/LPS fulminant liver injury model, Study a (survival). Format: in vivo, C57BL/6 mice. On the procedure:
A Galactosamine/Liposaccharide (GalN/LPS) fulminant liver injury model may be used to evaluate the anti-inflammatory, anti-TNFα and hepatoprotective properties of the compound of the description.
Mice were maintained under 12 h light/dark cycles with unlimited access to food and water. Study was performed in 6- to 14-week old male mice. C57BL/6 mice were used. Mice are first injected with pentamidine or Example 2 compound (IP injection). 30 minutes later, liver injury is induced by intraperitoneal injections of 100 μg/kg of LPS (E. coli 0111:B4) and 700 mg/kg of GalN (Sigma) dissolved in phosphate-buffered saline (PBS).
The tested compounds were be dosed IP 30-minutes prior to the co-treatment with galactosamine (GalN) and endotoxin (Lipopolysaccharide) LPS. Mice were either sacrificed at 6.5 hours after GalN/LPS for ALT analysis, or kept for longer periods to evaluate survival. The analysis of alanine transaminase (ALT) serum levels and histological observations allow the evaluation of the hepatoprotective, anti-TNF-α, anti-inflammatory and/or anti-fibrotic activity.
Survival was evaluated at two time points, i.e. 8 and 23 hours. In controls group receiving PBS prior to the GalN/LPS liver injury, no mice survived 8 hours. […] In the case of trihexamidine isethionate, all mice survived more than 23 hours with 10 mg/kg (8.6 μmole/kg) doses.

For test [4] the test system is unchanged. The test is described as follows: GalN/LPS fulminant liver injury model, Study c (serum ALT). As to conditions: for ALT: GalN-LPS 700 mg/kg - 10 μg/kg, 6 hours post injury, WFI control 4403. Format: in vivo, C57BL/6 mice. The procedure:
as §1, §2, §3

Setting [5] is: Homo sapiens, HCT-116, HCT-116 cells.

Consider six molecules from patent US11098009B2, “Amidine substituted analogues and uses thereof” (Verlyx Pharma Inc., priority 2016, dated 2021).

Counter-ions that a name gives are not always drawn.

For the molecule `N=C(N)c1ccc(OCCCCCCOc2cc(OCCCCCCOc3ccc(C(=N)N)cc3)cc(OCCCCCCOc3ccc(C(=N)N)cc3)c2)cc1` [Compound 1, Trihexamidine Formate], the concentration for half-maximal inhibition (IC50) – broadly, the point on the concentration scale where inhibition reaches its midpoint – in the test on HCT-116 cells (setting [5]) came to 1.9 µM.

As for `N=C(N)c1ccc(OCCCCCCOc2cc(OCCCCCCOc3ccc(C(=N)N)cc3)cc(OCCCCCCOc3ccc(C(=N)N)cc3)c2)cc1` [Compound 2, Trihexamidine Isethionate], the “Hepatoprotection at lower doses” value in test [1] is “Significant hepatoprotection”. Further, the “Hepatoprotection in the model (low ALT activity levels following GalN/LPS)” value in test [1] is listed as “hepatoprotective”. Also, the ALT turned out to be 2184 IU/L in test [1] (IP dose 5 mg/kg in WFI) and 890 IU/L in test [1] (IP dose 10 mg/kg in WFI). In test [2], the Disease activity index entry is “reduced the disease activity index”. This molecule also registered a 50% inhibitory concentration (IC50) with HCT-116 cells (HCT-116 cells) of 2.66 µM. For the same molecule, in test [3] (10 mg/kg (8.6 μmole/kg) IP 30 min before GalN/LPS), the “Survival (all mice) post GalN/LPS” value is on record as “more than 23 hours”.

For the molecule `N=C(N)c1ccc(OCCCCCCCCOc2cc(OCCCCCCCCOc3ccc(C(=N)N)cc3)cc(OCCCCCCCCOc3ccc(C(=N)N)cc3)c2)cc1` [Compound 3, Trioctamidine Isethionate], in the test with HCT-116 cells (setting [5]), inhibition was half-maximal at 6.67 µM (IC50).

`N=C(N)c1ccc(OCCCOc2cc(OCCCOc3ccc(C(=N)N)cc3)cc(OCCCOc3ccc(C(=N)N)cc3)c2)cc1` [Compound 4, Tripropamidine Formate]: in test [1], the “Hepatoprotection at lower doses” value is listed as “Significant hepatoprotection”. Also, the “Hepatoprotection in the model (low ALT activity levels following GalN/LPS)” value in test [1] is recorded as “hepatoprotective”; in test [4] (Study c, FIG. 4) it was “dose-dependent hepatoprotection”. Moreover, the ALT in test [1] (IP dose 5 mg/kg in WFI) is listed as 731 IU/L; in test [4] (Study c, IP dose 0.625 mg/kg in WFI) it was 1755 IU/L; in test [4] (Study c, IP dose 1.25 mg/kg in WFI), 1090 IU/L; in test [4] (Study c, IP dose 2.5 mg/kg in WFI), 555 IU/L. In test [4] (Study c, 0.625 mg/kg, 1.25 mg/kg and 2.5 mg/kg IP), the “Hepatoprotection at stated doses” value is reported as “Significant hepatoprotection”. In addition, in test [2], the Disease activity index result is listed as “reduced the disease activity index”. In the test with HCT-116 cells (setting [5]), this molecule registered an IC50 of 38 µM.

For the molecule `N=C(N)c1ccc(OCCCCCOc2ccc(C(=N)N)cc2)cc1` [Pentamidine, pentamidine, reference compound], the “Hepatoprotection (positive control)” value is “benefited from hepatoprotective properties” in test [1] (50 mg/kg (84 μmole/kg)) and “benefited from hepatoprotective properties” in test [4] (Study c text, 50 mg/kg (84 μmole/kg)). Besides, the ALT in test [1] (IP dose 50 mg/kg in WFI) stood at 306 IU/L. In addition, the “Survival at 8 hours post GalN/LPS” value in test [3] (25 mg/kg IP 30 min before GalN/LPS) is “only the 40 mg/kg (67 μmole/kg) group benefited”; in test [3] (40 mg/kg (67 μmole/kg) IP 30 min before GalN/LPS, PBS controls: no mice survived 8 hours), “benefited from hepatoprotective properties”. Further, the “Survival at 23 hours post GalN/LPS” value in test [3] (25 and 40 mg/kg IP 30 min before GalN/LPS) was “none survived”.

Consider “Triamidine Formate (Chain Average Mn 1000) [Compound 5]”, for which, in test [1], the “Hepatoprotection at lower doses” value is recorded as “Significant hepatoprotection” and the “Hepatoprotection in the model (low ALT activity levels following GalN/LPS)” value was “hepatoprotective”. The molecule also displayed an ALT in test [1] (IP dose 5 mg/kg in WFI) of 1072 IU/L. Moreover, the ALT in test [1] (IP dose 10 mg/kg in WFI) was 689 IU/L. The “HCT-116 IC50” value with HCT-116 cells (HCT-116 cells) was “∞”.
